According to patent publication US7759399B2, “Pharmaceutical compositions” (priority 2002, dated 2010):
Where two headings read alike, the source gives them in different places.

Experiments:
[1] = tested on: Sendai virus; assay: Sendai virus replication in 37RC cells (virus yield by HAU titration); format: cell-based; settings: Respirovirus muris, 5 HAU/10^5 cells, virus yield at 24 hours after infection, read-out: ID50 (50% inhibitory dose/concentration), Sendai virus yield
[2] = tested on: HSF; assay: HSF luciferase reporter assay, HeLa cell clone 13B (human hsp70 promoter); format: cell-based; settings: 8 h, HeLa clone 13B, 8 h treatment, serum-free medium, read-out: HSF, AC200 (concentration at which the compound doubled the HSF activity)
Procedure: (§1) Method: HeLa cell clone 13B, stably transfected with a luciferase reporter plasmid controlled by the human hsp70 promoter, and HeLa κB-transformed cells, stably transfected with a luciferase reporter plasmid controlled by a synthetic NF-κB-STM construct, were maintained in DMEM medium supplemented with 10% FBS, L-glutamine (2 mM) and G418 (250 μg/ml) at 37° C. in a 5% CO2 humidified atmosphere.
(§2) Cells were seeded at a density of 4×10^4 cells/well in 96-well plates. After 18-20 h, the medium was removed and cells were treated for 8 h with the test compounds (100 μl) at the appropriate dilutions in serum-free medium. For the NF-κB-dependent reporter gene assay, cells were stimulated with TPA (25 ng/ml) 2 h after exposure to the compounds.
(§3) After incubation, the medium was removed and cells were lysed in 10 μl of lysis buffer. The luciferase activity was determined by adding 100 μl of substrate and measuring the release of light using a Victor 1420 microplate reader (Wallac, Finland).
(§4) The AC200/μM for HSF is the concentration at which the tested compound doubled the HSF activity in this assay. The IC50/μM for NF-κB is the concentration at which the tested compound halved the NF-κB activity in this assay.

[3] = tested on: NF-κB; assay: NF-κB-dependent luciferase reporter gene assay, HeLa κB-transformed cells, TPA stimulated; format: cell-based; settings: Homo sapiens, HeLa, 8 h treatment, TPA 25 ng/ml 2 h after exposure, read-out: NF-κB, IC50 (concentration at which the compound halved the NF-κB activity)
Procedure: as §1, §2, §3
(§5) The fragment Kpn I-BamH I from the pGL3 basic vector containing the luciferase gene (PROMEGA) was inserted in the pcDNA3 vector (INVITROGEN) digested with Bgl II-KpnI. (This digestion removes the CMV-promoter from pcDNA3.) The resulting new vector was digested with Kpn I-Hind III and a promoter containing a ‘5xNF-κB binding sites—TATA box’ sequence was inserted upstream of the luciferase gene. This vector has been named STM.
(§6) To obtain stable HeLa cell lines expressing the luciferase gene under the control of NF-κB, HeLa cells were transfected (using lipofectamine plus GIBCO) with the STM-Pvu I linearized vector, and selected for 20 days with G418 (800 μg/ml). After selection, the resistant HeLa cell pool was controlled (in quadruplicate samples) for luciferase activity after stimulation with TNFα, IL-1 and TPA.
as §4

[4] = in vitro; format: cell-based; settings: 37RC cells, 24 h treatment; read-out: LC50 (50% lethal dose/concentration), Neutral Red
Procedure: Cell viability was determined using the Neutral Red assay. 37RC cells were seeded at density of 6×10^4 cells/well in 24-well plates and incubated for 24 h. Confluent 37RC monolayers were treated with the test compounds at different dilutions for 24 h at 37° C. After incubation, the medium was removed and the cells were incubated with RPMI medium containing 40 μg/ml Neutral Red dye (500 μl/well). After 2 h at 37° C., the monolayers were washed with phosphate-buffered saline (PBS) and then with a solution containing 1% CaCl2 and 0.5% formaldehyde. After washing, a solution containing 1% acetic acid/50% ethanol was added to the monolayers (250 μl/well). After 10 min at room temperature, the absorbance was determined with a microplate reader (Victor 1420, Wallac) at 540 nm.

[5] = tested on: uninfected 37RC cells; settings: monkey
[6] = tested on: NF-κB; assay: EMSA of NF-κB DNA-binding activity in TPA-stimulated Jurkat T cells; format: cell-based, Human; settings: Jurkat T cells treated 1 hour, then TPA 25 ng/ml, extracts after 3 hours; FIGS. 1(b)-6(b)
Procedure: Methods: Human lymphoblastoid Jurkat T cells were grown at 37° C. in a 5% CO2 atmosphere in RPM1 1640 medium (GIBCO BRL, Gaithersburg, Md.) supplemented with 10% fetal calf serum (FCS, Hyclone Europe Ltd, UK) 2 mM glutamine and antibiotics according to the method described by A. Rossi et al. (Proc. Natl. Acad. Sci. USA 94: 746-750, 1997). The test compounds were stored as a 100% ethanolic stock solution (100 mM) or in DMSO (100 mM) and diluted to the appropriate concentration in culture medium at the time of use. Cells were treated with different concentrations of test compound for 1 hour and then stimulated with 12-O-tetradecanoylphorbol-13-acetate (TPA, 25 ng/ml), which is a strong inducer of NF-κB. Control cells received an equal amount of control diluent. After 3 hours whole-cell extracts were prepared and subjected to analysis of DNA-binding activity by EMSA (Electrophoretic Mobility Shift Assay) for detection of HSF or NF-κB activation, according to the method described by A. Rossi et al. (Proc. Natl. Acad. Sci. USA 94: 746-750, 1997).
Specificity of protein-DNA complexes was verified by immunoreactivity with polyclonal antibodies specific for p65 (Rel A) or for HSF-1, for NF-κB and HSF respectively. Quantitative evaluation of NF-κB and HSF-DNA complex formation was determined by Molecular Dynamics Phosphorimager (MDP) analysis and was expressed in arbitrary units, as described in A. Rossi et al. (J. Biol. Chem. 273: 16446-16452, 1998). The results from representative experiments are shown in FIGS. 1(b), 2(b), 3(b), 4(b), 5 and 6(b) for compounds CTM-50, CTM-49, CTM-36, CTM-30, CTC-130 and CTC-109, as identified above.

[7] = tested on: uninfected 37RC cells; assay: Toxicity to uninfected cells, determined visually by microscopy (TD100)
[8] = Alamar Blue cytotoxicity assay; format: cell-based; settings: human
Procedure: HeLa cells were plated in 96-well microtiter plates in 100 μl culture medium (4×10^4/well). After 20 hours, the cells were exposed to the test compounds at different dilutions and incubated for the next 8 h at 37° C. in a 5% CO2 humidified atmosphere. After 6 h incubation, the Alamar Blue was added in an amount equal to 10% of the culture volume (10 μl). Two hours after the addition of the Alamar Blue, the fluorescence was measured using a Victor 1420 microplate reader.
The LC50/μM is the concentration at which the tested compound killed half the cells in this assay.

[9] = doses from 30 μg/kg/min; cited from earlier work
[10] = tested on: NF-κB; assay: Luciferase activity of G418-resistant HeLa cell pool transfected with NF-κB-LUC after stimulation; format: cell-based; settings: NF-κB-LUC (STM vector), quadruplicate samples, control 1369±149
From the text: as §5, §6

Compound | IC50 ([1]; 24 h) | EC (2-fold) [2] | IC50 [3] | CC50 at 24 h [4] | TD100 (dose or concentration at which the compound was 100% toxic to uninfected cells) [5] | NF-κB-DNA complex formation (EMSA), result in words [6] | IC50 [1] | TD100 (dose or concentration at which the compound was 100% toxic to uninfected cells) [7] | CC50 at 8 h [8] | effect on blood pressure [9] | luciferase activity [10]
CC(C)(C)C(=O)OC1[C@@H](Sc2ccc3ccccc3c2)CC(=O)C1(C)C (stereo in doubt) [CTM-191, 2,2-dimethylpropionic acid (1R,5S)-2,2-dimethyl-5-(naphthalen-2-ylsulfanyl)-3-oxocyclopentyl ester] | 4 µM | 18 µM | 25 µM | 24 µM | 50 µM | – | – | – | – | – | –
CC(C)(C)C(=O)OC1[C@H](Sc2ccc3ccccc3c2)CC(=O)C1(C)C (stereo in doubt) [CTM-193, 2,2-dimethylpropionic acid (1S,5R)-2,2-dimethyl-5-(naphthalen-2-ylsulfanyl)-3-oxocyclopentyl ester] | 3 µM | 26 µM | 32 µM | 23 µM | 50 µM | – | – | – | – | – | –
COC(=O)[C@H](CSC1C=CC(=O)C1)NC(=O)OC(C)(C)C (some centres unmarked) [CTC-109] | 3 µM | – | – | – | 500 µM | inhibitors of NF-κB | – | – | – | – | –
COC(=O)[C@H](CSC1C=C(C(SC[C@H](NC(=O)OC(C)(C)C)C(=O)OC)C(C)C)C(=O)C1)NC(=O)OC(C)(C)C (some centres unmarked) [CTC-130] | – | – | – | – | – | inhibitors of NF-κB | – | – | – | – | –
COC(=O)[C@H](CSC1CC(=O)C[C@@H]1O[Si](C)(C)C(C)(C)C)NC(=O)OC(C)(C)C (some centres unmarked) [CTM-36] | – | – | – | – | – | inhibitors of NF-κB | 4 µM | >500 µM | – | – | –
COC(=O)[C@H](CSC1CCC(=O)C1)NC(=O)OC(C)(C)C (some centres unmarked) [CTM-49] | 20 µM | – | – | – | >500 µM | inhibitors of NF-κB | – | – | – | – | –
COC(=O)[C@H](CSC1=CC(=O)CC1)NC(=O)OC(C)(C)C [CTM-50] | 10 µM | – | – | – | >500 µM | inhibitors of NF-κB | – | – | – | – | –
CC(C)(C)[Si](C)(C)O[C@H]1CC(=O)C[C@@H]1Sc1ccc(F)cc1 [CTM-108] | – | 13 µM | > 100 µM | 29 µM | – | – | 4 µM | 50 µM | > 800 µM | – | –
Cc1cc(C)n(CCS[C@H]2CC(=O)C[C@@H]2O[Si](C)(C)C(C)(C)C)n1 [CTM-109] | – | 29 µM | > 100 µM | 33 µM | – | – | 4 µM | 50 µM | 267 µM | – | –
CC(S[C@H]1CC(=O)C[C@@H]1O[Si](C)(C)C(C)(C)C)C(=O)NCC(=O)O (some centres unmarked) [CTM-110] | – | 27 µM | > 100 µM | 18 µM | – | – | 1 µM | 50 µM | > 800 µM | – | –
CCOC(=O)[C@H](CS[C@H]1CC(=O)C[C@@H]1O[Si](C)(C)C(C)(C)C)NC(C)=O [CTM-131] | – | 70 µM | > 100 µM | 125 µM | – | – | 10 µM | 50 µM | > 800 µM | – | –
CC(C)(C)[Si](C)(C)O[C@H]1CC(=O)C[C@@H]1Sc1ccncc1 [CTM-132] | – | 13 µM | 33 µM | 2.6 µM | – | – | 0.2 µM | 10 µM | 220 µM | – | –
CC(C)(C)[Si](C)(C)O[C@H]1CC(=O)C[C@@H]1SCCS(=O)(=O)O [CTM-165] | – | 26 µM | 50 µM | 21 µM | – | – | 1 µM | 50 µM | > 800 µM | – | –
COc1ccc(S[C@H]2CC(=O)C[C@@H]2O[Si](C)(C)C(C)(C)C)cc1 [CTM-169] | – | 26 µM | 38 µM | 22 µM | – | – | 1.5 µM | 50 µM | > 800 µM | – | –
CCCCC[C@H](O)/C=C/[C@H]1C=CC(=O)[C@@H]1CCCCCCC(=O)O [Prostaglandin A1] | – | – | – | – | – | – | – | – | – | dose-dependant falls in blood pressure | –
CCCCCCCCCCCCCC(=O)O[C@@H]1[C@@H](C)[C@@]2(O)[C@@H](C=C(CO)C[C@]3(O)C(=O)C(C)=C[C@@H]23)[C@@H]2C(C)(C)[C@]12OC(C)=O [TPA, 12-O-tetradecanoylphorbol-13-acetate] | – | – | – | – | – | – | – | – | – | – | 7181±444
TNFα | – | – | – | – | – | – | – | – | – | – | 6111±1231
